Where a name gives a salt, the structure may show the parent alone.
What was measured:
[1] = tested on: tomato plants; assay: field trial on tomato plants, crop injury (Example 9); assay type: in vivo; conditions: 0 = no injury, 10 = dead plants
Procedure: (§1) A mixture of the monoammonium salt of A16886I and the monoammonium salt of A16886II was tested under field conditions for the control of Xanthomonas vesicatoria (bacterial spot) on mature bearing tomato plants. The mixture of the two salts was dispersed in water at a concentration of 100, 200, or 400 parts per million and applied to the plants at the rate of 75 gallons per acre. Application was made with a CO2 sprayer at 50 psi. Plants were sprayed twice, on successive days; after the second spray had dried, all plants were wounded by sand blasting and then within one minute the plants were inoculated with a bacterial inoculum of Xanthomonas vesicatoria. Three days later, a third spray application of the aqueous formulation of A16886 was made. Readings were made one week and two weeks after the last spray treatment. Controls consisted of groups of plants (1) sand blasted and inoculated; (2) sand blasted only; (3) untreated; and (4) treated with streptomycin (on the same three-day spraying schedule, at a concentration of 100, 200, or 400 parts per million of aqueous solution, using a rate of 75 gallons per acre), sand blasted, and inoculated. The results were as set forth in the following table, in which crop injury is reported on a scale of 0-10, with 0 = no injury and 10 = dead plants; and control of bacterial spot is reported on a percentage basis.

[2] = tested on: Xanthomonas vesicatoria; assay: field trial on tomato plants, bacterial spot control (Example 9); assay type: in vivo
Procedure: as §1

[3] = tested on: Proteus sp. PR6; assay: Bauer-Kirby disc diffusion, zone of inhibition; assay type: cell-based
[4] = tested on: Klebsiella-Aerobacter KA 25; assay: Bauer-Kirby disc diffusion, zone of inhibition; assay type: cell-based
[5] = tested on: Salmonella typhosa SA 16; assay: Bauer-Kirby disc diffusion, zone of inhibition; conditions: Salmonella enterica
Description: (§2) The evaluation was made on the monoammonium salts of separated factors I and II.

[6] = tested on: Pseudomonas sp. Ps 30; assay: Bauer-Kirby disc diffusion, zone of inhibition; assay type: cell-based
[7] = physchem; conditions: 66% dimethylformamide-water
[8] = tested on: Proteus sp. PR7; assay: Bauer-Kirby disc diffusion, zone of inhibition; assay type: cell-based
[9] = tested on: Klebsiella-Aerobacter KA 14; assay: Bauer-Kirby disc diffusion, zone of inhibition; assay type: cell-based
[10] = tested on: Staphylococcus aureus 3074; assay: Bauer-Kirby disc diffusion, zone of inhibition; assay type: cell-based
[11] = tested on: Ascaris lumbricoides var. suum; assay: anthelmintic evaluation in mice by treated feed, separate factors (Example 13); assay type: in vivo; conditions: 0.05 percent in diet, control 2.66
Description: The feeds were utilized as diets for separate groups of mice, five mice per group. About twelve hours after initiation of the feeding, the mice were infected with Ascaris lumbricoides var. suum ova. Another group of five mice was fed the non-medicated feed to serve as a control but was similarly infected at the same time with Ascaris lumbricoides var. suum. All groups were fed their respective feed and maintained under normal laboratory conditions for a period of eight days, at which time all mice were taken off feed. On the ninth day, all mice were sacrificed and the lungs examined to determine the presence, and if present, numbers, of lesions of Ascaris lumbricoides var. suum.
In a further evaluation, the monoammonium salts of A16886I and A16886II were separately evaluated for the control of Ascaris lumbricoides var. suum. The evaluations were conducted in accordance with the procedure reported in Example 11 at a concentration in the diet of 0.05 percent.

[12] = tested on: Pseudomonas sp. Ps 24; assay: Bauer-Kirby disc diffusion, zone of inhibition; assay type: cell-based
[13] = tested on: Salmonella typhosa SA 12; assay: Bauer-Kirby disc diffusion, zone of inhibition; conditions: Salmonella enterica
Description: as §2

[14] = solubility; assay type: physicochemical
[15] = tested on: Escherichia coli EC 25; assay: Bauer-Kirby disc diffusion, zone of inhibition; assay type: cell-based
[16] = tested on: Staphylococcus aureus 3055; assay: Bauer-Kirby disc diffusion, zone of inhibition; assay type: cell-based
[17] = tested on: Escherichia coli 0127; assay: Bauer-Kirby disc diffusion, zone of inhibition; assay type: cell-based

[H]/N=C(/N)N[C@H]1[C@H](O)[C@@H](O)[C@H](O[C@@H]2O[C@@H](C)[C@](O)(C=O)[C@H]2O[C@@H]2O[C@@H](CO)[C@H](O)[C@@H](O)[C@@H]2NC)[C@@H](N/C(N)=N\[H])[C@@H]1O [Streptomycin]
Crop Injury Ratings ([1]; 100 parts/million, first reading): 0 | Crop Injury Ratings ([1]; 100 parts/million, second reading): 0 | Crop Injury Ratings ([1]; 200 parts/million, first reading): 0 | Crop Injury Ratings ([1]; 200 parts/million, second reading): 0 | Crop Injury Ratings ([1]; 400 parts/million, first reading): 0 | Crop Injury Ratings ([1]; 400 parts/million, second reading): 0 | Percent Bacterial Spot Control ([2]; 100 parts/million, first reading (one week)): 83% | Percent Bacterial Spot Control ([2]; 100 parts/million, second reading (two weeks)): 57% | Percent Bacterial Spot Control ([2]; 200 parts/million, first reading (one week)): 81% | Percent Bacterial Spot Control ([2]; 200 parts/million, second reading (two weeks)): 37% | Percent Bacterial Spot Control ([2]; 400 parts/million, first reading (one week)): 83% | Percent Bacterial Spot Control ([2]; 400 parts/million, second reading (two weeks)): 59%

NC(=O)OCC1=C(C(=O)O)N2C(=O)C(NC(=O)CCCC(N)C(=O)O)[C@H]2SC1 (stereo partly drawn) [A16886II, 7-(5-amino-5-carboxyvaleramido)-3-(carbamoyloxymethyl)-3-cephem-4-carboxylic acid]
zone of inhibition at 0.5 µg/disc ([3]; 0.5 μg./disc): 0 mm | zone of inhibition at 1 µg/disc ([3]; 1.0 μg./disc): 0 mm | zone of inhibition at 2.5 µg/disc ([3]; 2.5 μg./disc): 10.4 mm | zone of inhibition at 5 µg/disc ([3]; 5 μg./disc): 13.6 mm | zone of inhibition at 10 µg/disc ([3]; 10 μg./disc): 16.7 mm | zone of inhibition at 30 µg/disc ([3]; 30 μg./disc): 22.2 mm | zone of inhibition at 0.5 µg/disc ([4]; 0.5 μg./disc): 0 mm | zone of inhibition at 1 µg/disc ([4]; 1.0 μg./disc): 0 mm | zone of inhibition at 2.5 µg/disc ([4]; 2.5 μg./disc): 0 mm | zone of inhibition at 5 µg/disc ([4]; 5 μg./disc): 7.4 mm | zone of inhibition at 10 µg/disc ([4]; 10 μg./disc): 10.1 mm | zone of inhibition at 30 µg/disc ([4]; 30 μg./disc): 15.6 mm | zone of inhibition at 0.5 µg/disc [5]: 0 mm | zone of inhibition at 1 µg/disc [5]: 0 mm | zone of inhibition at 2.5 µg/disc [5]: 7.5 mm | zone of inhibition at 5 µg/disc [5]: 11 mm | zone of inhibition at 10 µg/disc [5]: 13.4 mm | zone of inhibition at 30 µg/disc [5]: 19.3 mm | zone of inhibition at 0.5 µg/disc ([6]; SP.PS30, 0.5 μg./disc): 0 mm | zone of inhibition at 1 µg/disc ([6]; SP.PS30, 1.0 μg./disc): 0 mm | zone of inhibition at 2.5 µg/disc ([6]; SP.PS30, 2.5 μg./disc): 0 mm | zone of inhibition at 5 µg/disc ([6]; SP.PS30, 5 μg./disc): 0 mm | zone of inhibition at 10 µg/disc ([6]; SP.PS30, 10 μg./disc): 0 mm | zone of inhibition at 30 µg/disc ([6]; SP.PS30, 30 μg./disc): 0 mm | pKa ([7]; pH 6.8, pK'a1): 4 | pKa ([7]; pH 6.8, pK'a2): 5.3 | pKa ([7]; pH 6.8, pK'a3): 9.2 | pKa ([7]; pH 6.8, pK'a4): 10.5 | pKa ([7]; pH 7.7, pK'a1): 4.4 | pKa ([7]; pH 7.7, pK'a2): 5.7 | pKa ([7]; pH 7.7, pK'a3): 9.6 | pKa ([7]; pH 7.7, pK'a4): 10.4 | zone of inhibition at 0.5 µg/disc ([8]; 0.5 μg./disc): 0 mm | zone of inhibition at 1 µg/disc ([8]; 1.0 μg./disc): 0 mm | zone of inhibition at 2.5 µg/disc ([8]; 2.5 μg./disc): 0 mm | zone of inhibition at 5 µg/disc ([8]; 5 μg./disc): 0 mm | zone of inhibition at 10 µg/disc ([8]; 10 μg./disc): 0 mm | zone of inhibition at 30 µg/disc ([8]; 30 μg./disc): 7.1 mm | zone of inhibition at 0.5 µg/disc ([9]; 0.5 μg./disc): 0 mm | zone of inhibition at 1 µg/disc ([9]; 1.0 μg./disc): 0 mm | zone of inhibition at 2.5 µg/disc ([9]; 2.5 μg./disc): 0 mm | zone of inhibition at 5 µg/disc ([9]; 5 μg./disc): 10.8 mm | zone of inhibition at 10 µg/disc ([9]; 10 μg./disc): 13.7 mm | zone of inhibition at 30 µg/disc ([9]; 30 μg./disc): 20.1 mm | zone of inhibition at 0.5 µg/disc ([10]; 0.5 μg./disc): 0 mm | zone of inhibition at 1 µg/disc ([10]; 1.0 μg./disc): 0 mm | zone of inhibition at 2.5 µg/disc ([10]; 2.5 μg./disc): 0 mm | zone of inhibition at 5 µg/disc ([10]; 5 μg./disc): 0 mm | zone of inhibition at 10 µg/disc ([10]; 10 μg./disc): 0 mm | zone of inhibition at 30 µg/disc ([10]; 30 μg./disc): 10.1 mm | Average Number of Lung Lesions Per Group [11]: 0.20 | zone of inhibition at 0.5 µg/disc ([12]; SP.PS24, 0.5 μg./disc): 0 mm | zone of inhibition at 1 µg/disc ([12]; SP.PS24, 1.0 μg./disc): 0 mm | zone of inhibition at 2.5 µg/disc ([12]; SP.PS24, 2.5 μg./disc, * = satellite colonies within zone (Factor II)): 9.3 mm | zone of inhibition at 5 µg/disc ([12]; SP.PS24, 5 μg./disc, * = satellite colonies within zone (Factor II)): 12.3 mm | zone of inhibition at 10 µg/disc ([12]; SP.PS24, 10 μg./disc): 15.4 mm | zone of inhibition at 30 µg/disc ([12]; SP.PS24, 30 μg./disc): 20.2 mm | zone of inhibition at 0.5 µg/disc [13]: 0 mm | zone of inhibition at 1 µg/disc [13]: 7.5 mm | zone of inhibition at 2.5 µg/disc [13]: 12.3 mm | zone of inhibition at 5 µg/disc [13]: 15.6 mm | zone of inhibition at 10 µg/disc [13]: 18.7 mm | zone of inhibition at 30 µg/disc [13]: 23.8 mm | solubility in acetonitrile and other organic solvents ([14]; acetonitrile and other organic solvents): essentially insoluble | solubility in lower alkanols ([14]; lower alkanols): slightly soluble | solubility in water ([14]; water): very soluble | zone of inhibition at 0.5 µg/disc ([15]; EC25, 0.5 μg./disc): 0 mm | zone of inhibition at 1 µg/disc ([15]; EC25, 1.0 μg./disc): 0 mm | zone of inhibition at 2.5 µg/disc ([15]; EC25, 2.5 μg./disc): 0 mm | zone of inhibition at 5 µg/disc ([15]; EC25, 5 μg./disc): 0 mm | zone of inhibition at 10 µg/disc ([15]; EC25, 10 μg./disc): 7.7 mm | zone of inhibition at 30 µg/disc ([15]; EC25, 30 μg./disc): 11.9 mm | zone of inhibition at 0.5 µg/disc ([16]; 0.5 μg./disc): 0 mm | zone of inhibition at 1 µg/disc ([16]; 1.0 μg./disc): 0 mm | zone of inhibition at 2.5 µg/disc ([16]; 2.5 μg./disc): 0 mm | zone of inhibition at 5 µg/disc ([16]; 5 μg./disc): 0 mm | zone of inhibition at 10 µg/disc ([16]; 10 μg./disc): 0 mm | zone of inhibition at 30 µg/disc ([16]; 30 μg./disc): 12.4 mm | zone of inhibition at 0.5 µg/disc ([17]; 0.5 μg./disc): 0 mm | zone of inhibition at 1 µg/disc ([17]; 1.0 μg./disc): 0 mm | zone of inhibition at 2.5 µg/disc ([17]; 2.5 μg./disc): 9.4 mm | zone of inhibition at 5 µg/disc ([17]; 5 μg./disc): 12.9 mm | zone of inhibition at 10 µg/disc ([17]; 10 μg./disc): 15.9 mm | zone of inhibition at 30 µg/disc ([17]; 30 μg./disc): 19.7 mm

COC1(NC(=O)CCCC(N)C(=O)O)C(=O)N2C(C(=O)O)=C(COC(N)=O)CSC21 (stereo not drawn) [A16886I hydrochloride]
pKa ([7]; pH 5, pK'a1): 3.6 | pKa ([7]; pH 5, pK'a2): 5.2 | pKa ([7]; pH 5, pK'a3): 10.8

— patent US4123612A, “7-(5-Am ino-5-carboxyvaleramido)-3-(carbamoyoloxymethyl)-3-cephem-4-carboxylic acid” (Eli Lilly and Company, priority 1974, dated 1978)
